From the C3SDB collision cross section collection
Where “and” joins values, the source holds several entries; their conditions need not be identical. Identical values can stand only once.

Conditions: [M+H-H2O]+; instrument: TW; calibrated with polyalanine and drug standards

Row | Compound | collision cross section (N2)
1 | COC(=O)C[C@H]1C2(C)CC34OC5(C)O[C@@]6([C@H](OC)C(OC(=O)C(C)C)[C@]7(C)C(/C(=C(/OC)C(C)C)C(=O)O[C@H]7c7ccoc7)[C@@]6(O5)[C@H](OC)[C@@]3(OC)C2OC(C)=O)[C@]14C (stereo partly drawn) [CHUKRASIN METHYL ETHER] | 254.2 Å²

Same assay, conditions: [M+H]+; instrument: TW; calibrated with polyalanine and drug standards

Row | Compound | collision cross section (N2)
2 | O=C(Nc1ccc(C(=O)O)c(O)c1)c1ccccc1 [BENZOYLPAS] | 156.3 Å²
3 | COc1c(O)cc2c(c1O)[C@@H]1O[C@H](CO)[C@@H](O)[C@H](O)[C@H]1OC2=O [BERGENIN] | 168.3 Å²
4 | CCCCC(=O)O[C@]1(C(=O)CO)[C@@H](C)C[C@H]2[C@@H]3CCC4=CC(=O)C=C[C@]4(C)[C@@]3(F)[C@@H](O)C[C@@]21C [BETAMETHASONE VALERATE] | 214 Å²
5 | C[C@H]1C[C@H]2[C@@H]3CCC4=CC(=O)C=C[C@]4(C)[C@@]3(F)[C@@H](O)C[C@]2(C)[C@@]1(O)C(=O)CO [BETAMETHASONE] | 186.7 Å²
6 | O=C(O)CCNC(=O)c1ccccc1 [BETAMIPRON] | 138.7 Å²
7 | CC(C)(Oc1ccc(CCNC(=O)c2ccc(Cl)cc2)cc1)C(=O)O [BEZAFIBRATE] | 177.3 Å²
8 | COc1ccc(-c2coc3cc(O)cc(O)c3c2=O)cc1 [BIOCHANIN A] | 160.9 Å²
9 | OC(CCN1CCCCC1)(c1ccccc1)C1CC2C=CC1C2 (stereo not drawn) [BIPERIDEN] | 175.7 Å²
10 | CC(C)(c1ccc(O)cc1)c1ccc(O)cc1 [BISPHENOL A] | 147.1 Å²
11 | CC1(C)CC2C1CC[C@]1(CBr)CCC3C(CC(=O)O)C(=O)O[C@@]32C1 (stereo partly drawn) [BROMO-3-HYDROXY-4-(SUCCIN-2-YL)-CARYOLANE gamma-LACTONE] | 183.4 Å²
12 | COc1cc2c(cc1OC)[C@@]13CCN4CC5=CCO[C@H]6CC(=O)N2[C@H]1[C@H]6[C@H]5C[C@H]43 [BRUCINE] | 190.9 Å²
13 | CCOc1ccc(NC(=O)CC(C)O)cc1 (stereo not drawn) [BUCETIN] | 152.5 Å²
14 | CCCC(=O)Nc1ncnc2c1ncn2[C@@H]1O[C@@H]2COP(=O)(O)O[C@H]2[C@H]1OC(=O)CCC [BUCLADESINE] | 215.3 Å²
15 | CCCCNc1cc(C(=O)O)cc(S(N)(=O)=O)c1Oc1ccccc1 [BUMETANIDE] | 185.1 Å²
16 | CC(NC(C)(C)C)C(=O)c1cccc(Cl)c1 (stereo not drawn) [BUPROPION] | 157.5 Å²
17 | CCCCN(CCCC)CCCOC(=O)c1ccc(N)cc1 [BUTACAINE] | 179 Å²
18 | Clc1ccc(CCC(Cn2ccnc2)Sc2c(Cl)cccc2Cl)cc1 (stereo not drawn) [BUTOCONAZOLE] | 186.5 Å²
19 | Cn1c(=O)c2c(ncn2C)n(C)c1=O [CAFFEINE] | 136.9 Å²
20 | CCOc1nc2cccc(C(=O)OC(C)OC(=O)OC3CCCCC3)c2n1Cc1ccc(-c2ccccc2-c2nn[nH]n2)cc1 (stereo not drawn) [CANDESARTAN CILEXTIL] | 241.5 Å²

Row | Compound | collision cross section (N2)
21 | C[C@]12CCC(=O)C=C1C=C[C@@H]1[C@@H]2CC[C@@]2(C)[C@H]1CC[C@@]21CCC(=O)O1 [CANRENONE] | 183 Å²
22 | COC(=O)C[C@H]1C(C)(C)C(=O)[C@@H]2CC3C4=CC(=O)O[C@@H](c5ccoc5)[C@]4(C)CCC3[C@@]1(C)C2=O (stereo partly drawn) [CARAPIN] | 206.1 Å²
23 | COC(=O)N=N/C=C1\C=[N+]([O-])c2ccccc2N1O [CARBADOX] | 153.9 Å²
24 | CCCC(C)(COC(N)=O)COC(=O)NC(C)C (stereo not drawn) [CARISOPRODOL] | 149.1 Å²
25 | COc1ccccc1OCCNCC(O)COc1cccc2[nH]c3ccccc3c12 (stereo not drawn) [CARVEDILOL] | 189.1 Å²
26 | COc1cc(OC)c2c(c1)O[C@H](c1ccc(OC)c(OC)c1)[C@@H](O)C2 [CATECHIN TETRAMETHYLETHER] | 174.4 Å²
27 | C[C@@H]1CC[C@H]2C(C)(C)[C@H]3C[C@@]12CC[C@@]3(C)O [CEDROL] | 145.9 Å²
28 | CC1=C(O)C(=O)C=C2C1=CC=C1[C@@]2(C)CC[C@@]2(C)[C@@H]3C[C@](C)(C(=O)O)CC[C@]3(C)CC[C@]12C [CELASTROL] | 205.6 Å²
29 | Cc1ccc(-c2cc(C(F)(F)F)nn2-c2ccc(S(N)(=O)=O)cc2)cc1 [CELECOXIB] | 186.1 Å²
30 | CC1=C(C(=O)O)N2C(=O)[C@@H](NC(=O)[C@H](N)c3ccccc3)[C@H]2SC1 [CEPHALEXIN] | 178.5 Å²
31 | O=C(O)CCCc1ccc(N(CCCl)CCCl)cc1 [CHLORAMBUCIL] | 168.7 Å²
32 | CN1C(=O)CCS(=O)(=O)C1c1ccc(Cl)cc1 (stereo not drawn) [CHLORMEZANONE] | 158.2 Å²
33 | CC(=O)Oc1ccc(Cl)c2cccnc12 [CHLOROACETOXYQUINOLINE] | 141.1 Å²
34 | CN(C)CCCN1c2ccccc2Sc2ccc(Cl)cc21 [CHLORPROMAZINE] | 169.8 Å²
35 | CC(C)CCCC(C)C1CCC2C3CCC4CC(=O)CCC4(C)C3CCC12C (stereo not drawn) [CHOLESTAN-3-ONE] | 187.2 Å²
36 | O=c1cc(-c2ccccc2)oc2cc(O)cc(O)c12 [CHRYSIN] | 151.7 Å²
37 | CN=C(NC#N)NCCSCc1nc[nH]c1C [CIMETIDINE] | 155.7 Å²
38 | C=C[C@H]1CN2CC[C@H]1C[C@@H]2[C@@H](O)c1ccnc2ccccc12 [CINCHONINE] | 166.3 Å²
39 | O=C(O)c1cn(C2CC2)c2cc(N3CCNCC3)c(F)cc2c1=O [CIPROFLOXACIN] | 185.3 Å² and 173.3 Å²

Row | Compound | collision cross section (N2)
40 | CN(C)CCCC1(c2ccc(F)cc2)OCc2cc(C#N)ccc21 (stereo not drawn) [CITALOPRAM] | 178.9 Å²
41 | CC1=C2C(=CO[C@H](C)[C@H]2C)C(=O)C(C(=O)O)=C1O [CITRININ] | 150.2 Å²
42 | CC(C)(Oc1ccc(Cl)cc1)C(=O)O [CLOFIBRIC ACID] | 146.6 Å²
43 | COC(=O)[C@H]1[C@H]2C[C@H]3c4[nH]c5ccccc5c4CCN3C[C@@H]2CC[C@@H]1O [CORYNANTHINE] | 186 Å²
44 | C[C@H]1COC2=C1C(=O)C(=O)c1c2ccc2c1CCCC2(C)C [CRYPTOTANSHINONE] | 168 Å²
45 | COc1cc2c(cc1OC)Cc1cc(OC)c(OC)cc1Cc1cc(OC)c(OC)cc1C2 [CYCLOVERATRYLENE] | 213.9 Å²
46 | CC1(C)C(=O)C=C[C@@]2(C)C1CC(=O)[C@]1(C)C2CC[C@@]2(C)[C@H](c3ccoc3)OC(=O)[C@H]3O[C@]321 (stereo partly drawn) [DEACETOXY-7-OXOGEDUNIN] | 196.6 Å²
47 | Cc1c(O)c(=O)ccn1C [DEFERIPRONE] | 123.2 Å²
48 | CC(C)c1ccc2c(c1)CCC1C(C)(C(N)=O)CCCC21C (stereo not drawn) [DEHYDROABIETAMIDE] | 181.1 Å²
49 | COc1ccc2c(c1)OCC(Cc1ccc(OC)c(OC(C)=O)c1)C2=O (stereo not drawn) [DEOXYSAPPANONE B 7,3'-DIMETHYL ETHER ACETATE] | 177.9 Å²
50 | COc1ccc2c(c1)OCC(Cc1ccc(OC)c(OC)c1)C2=O (stereo not drawn) [DEOXYSAPPANONE B TRIMETHYL ETHER] | 176.6 Å²
51 | CC(C)(CO)[C@@H](O)C(=O)NCCCO [DEXPANTHENOL] | 144.1 Å²
52 | CC(=O)Nc1ccc(OC(C)=O)cc1 [DIACETAMATE] | 143.1 Å²
53 | CC(=O)Nc1c(I)c(NC(C)=O)c(I)c(C(=O)O)c1I [DIATRIZOIC ACID] | 176.3 Å²
54 | Oc1ccc(Cl)cc1Cc1cc(Cl)ccc1O [DICHLOROPHENE] | 147.4 Å²
55 | O=c1oc2ccccc2c(O)c1Cc1c(O)c2ccccc2oc1=O [DICUMAROL] | 182 Å²
56 | CCN(CC)C(=O)c1cccc(C)c1 [DIETHYLTOLUAMIDE] | 143.2 Å²
57 | CC(=O)OCC(=O)[C@@]1(OC(C)=O)[C@@H](C)C[C@H]2[C@@H]3C[C@H](F)C4=CC(=O)C=C[C@]4(C)[C@@]3(F)[C@@H](O)C[C@@]21C [DIFLORASONE DIACETATE] | 209.5 Å²
58 | COc1cc(OC)c(-c2c(OC)cc(OC)cc2OC)c(OC)c1 [DIFUCOL HEXAMETHYL ETHER] | 175.2 Å²

Same assay, conditions: [M+Na]+; instrument: TW; calibrated with polyalanine and drug standards

Row | Compound | collision cross section (N2)
59 | COC(=O)CC[C@@H](C)[C@H]1CC[C@H]2[C@@H]3[C@H](O)C[C@@H]4C[C@H](O)CC[C@]4(C)[C@H]3C[C@H](O)[C@]12C [CHOLIC ACID, METHYL ESTER] | 198.1 Å²
60 | C=C[C@@]1(C)CC(=O)[C@]2(O)[C@@]3(C)[C@@H](O)CCC(C)(C)[C@@H]3[C@H](O)[C@H](OC(C)=O)[C@@]2(C)O1 [COLFORSIN] | 191.9 Å²
61 | CC1(C)C(C=C(Cl)Cl)C1C(=O)OC(C#N)c1cccc(Oc2ccccc2)c1 (stereo not drawn) [CYPERMETHRIN] | 200.6 Å²
62 | C[C@H](CCC(=O)O)[C@H]1CC[C@H]2[C@@H]3CC[C@@H]4C[C@H](O)CC[C@]4(C)[C@H]3C[C@H](O)[C@]12C [DEOXYCHOLIC ACID] | 196.7 Å²

Same assay, conditions: [M]+; instrument: TW; calibrated with polyalanine and drug standards

Row | Compound | collision cross section (N2)
63 | CCCCCCCCCCCCCC[N+](C)(C)Cc1ccccc1 [BENZALKONIUM CHLORIDE C14] | 205.7 Å²
